From publication PMC9811466, “Structural Features Affecting the Interactions and Transportability of LAT1-Targeted Phenylalanine Drug Conjugates” (Molecular Pharmaceutics, 2022)
“And” between values parts separate entries of the source, which are not always exact repeats. Equal values may be shown once. Read-outs that look alike come from different tables or passages of the source.

Key:
HEK-MOCK cells [1] = assay: Concentration-dependent cellular uptake into HEK-MOCK cells; assay type: cell-based, human; settings: for Vmax: 10 min
Method: (§1) The concentrations for the compounds were in the range of 2–400 μM. Otherwise, the experiment was carried out as described above and analyzed by liquid chromatography coupled with an electrospray ionization (ESI) triple quadrupole mass spectrometer (LC–MS–MS). […]
(§2) The concentration-dependent uptake studies were performed by adding 2–400 μM of the tested compound in 250 μL of prewarmed HBSS buffer on the cell layer. […] After incubation, the cells were washed and lysed as described above. The lysate was collected from wells into an Eppendorf tube and centrifuged at 4 °C, the supernatant was collected, and the intracellular concentrations of studied compounds were analyzed by liquid chromatography coupled with an ESI triple quadrupole mass spectrometer (LC–MS–MS). The results were calculated from the standard curve that was prepared by spiking known amounts of each compound to the cell lysate and normalized to protein concentration. The protein concentrations on each plate were determined as a mean of three samples by Bio-Rad Protein Assay, based on the Bradford dye-binding method, using BSA as a standard protein and measuring the absorbance (595 nm) by a multiplate reader (EnVision, PerkinElmer, Inc., Waltham, MA, USA). All statistical analyses (Michaelis–Menten kinetic parameters) were performed using GraphPad Prism v. 5.03 software (GraphPad Software, San Diego, CA., USA). […]
(§3) After protein precipitation, the samples were centrifuged for 10 min with 10,000 g at 4 °C. The supernatant was then collected and transferred to vials for LC–MS/MS analysis. For BCH and gabapentin, cells were also lysed with 0.1 M NaOH, an aliquot was taken from the lysates, and perchloric acid (PCA) was added to precipitate the proteins. The samples were then centrifuged, and the supernatant was diluted 1:10 with H20 with 0.1% formic acid including the IS and transferred to vials for analysis.
(§4) The samples were analyzed with LC–MS/MS coupled with an Agilent 1200 series Rapid Resolution LC System (Agilent Technologies, Waldbronn, Germany) and an Agilent 6410 Triple Quadrupole with electrospray ionization (ESI) (Agilent Technologies, Palo Alto, CA, USA). […] The aqueous mobile phase was 0.1% formic acid in water (A), while the organic mobile phase was 0.1% formic acid in acetonitrile (B). […] For compound 4: 0–4 min 10% → 90% B, 4–6 min 90% B, 6–6.1 min 90% → 10%, 6.1–9 min 10%. For compound 5: 0–1 min 20% → 95% B, 1–4 min 95%, 4–4.1 min 95% → 20%, 4.1–7 min 20%. For compounds 6 and 9: 0–2 min 10% → 95%, 2–6 min 95%, 6–6.1 min 95% → 10%, 6.1–9 min 10%. For compound 8: 0–1 min 20% → 80%, 1–5.2 min 80%, 5.2–5.3 min 80% → 20%, 5.3–9 min 20%.

hLAT1/4F2hc [2] = target: T1, hLAT1/4F2hc (Homo sapiens, UniProt Q01650); assay: cis-inhibition of [14C]-L-leucine uptake in HEK-hLAT1 cells; assay type: cell-based; settings: for inhibition at 50 µM: read-out: [14C]-L-Leucine uptake inhibition % (50μM)
T1 construct: Invitrogen (host cells)
T1 sequence (Q01650 whole entry): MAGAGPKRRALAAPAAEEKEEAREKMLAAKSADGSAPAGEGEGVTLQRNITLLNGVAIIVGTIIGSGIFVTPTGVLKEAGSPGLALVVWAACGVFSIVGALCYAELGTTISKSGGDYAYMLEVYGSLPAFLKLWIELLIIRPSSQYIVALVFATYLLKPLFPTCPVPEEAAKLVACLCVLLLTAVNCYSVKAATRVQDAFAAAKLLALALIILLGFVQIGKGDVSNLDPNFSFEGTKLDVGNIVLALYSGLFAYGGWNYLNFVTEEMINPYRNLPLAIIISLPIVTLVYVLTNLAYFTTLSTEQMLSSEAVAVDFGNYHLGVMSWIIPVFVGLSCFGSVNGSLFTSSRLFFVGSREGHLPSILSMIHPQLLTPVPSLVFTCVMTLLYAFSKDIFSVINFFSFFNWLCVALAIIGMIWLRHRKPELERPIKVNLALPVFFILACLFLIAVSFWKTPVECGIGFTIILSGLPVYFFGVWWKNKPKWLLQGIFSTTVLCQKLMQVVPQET
T1 sequence (P08195 102-630 partner): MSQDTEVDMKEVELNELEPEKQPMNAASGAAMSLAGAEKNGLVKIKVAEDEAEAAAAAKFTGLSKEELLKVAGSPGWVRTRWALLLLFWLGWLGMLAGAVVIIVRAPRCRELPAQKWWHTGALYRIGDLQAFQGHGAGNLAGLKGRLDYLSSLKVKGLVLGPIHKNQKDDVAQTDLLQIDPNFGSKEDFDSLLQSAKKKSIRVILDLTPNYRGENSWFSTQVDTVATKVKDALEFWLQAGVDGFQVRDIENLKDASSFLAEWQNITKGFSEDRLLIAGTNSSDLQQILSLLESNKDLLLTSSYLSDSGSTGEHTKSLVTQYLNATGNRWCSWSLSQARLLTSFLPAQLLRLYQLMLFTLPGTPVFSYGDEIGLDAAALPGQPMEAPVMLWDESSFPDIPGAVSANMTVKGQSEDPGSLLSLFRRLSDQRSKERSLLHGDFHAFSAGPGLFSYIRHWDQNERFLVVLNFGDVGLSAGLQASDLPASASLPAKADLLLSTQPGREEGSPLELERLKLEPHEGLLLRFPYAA
Method: (§5) In the following experiments, the MCF-7, HEK-hLAT1, and HEK-MOCK cells were cultured, seeded, and preincubated as described above. The HBSS was removed, and the ability of the compounds to inhibit the uptake of a known LAT1 substrate, [^14C]-L-leucine (PerkinElmer, Waltham, MA, USA), was studied by incubating the cells at RT for 10 min in uptake buffer pH 7.4 (250 μL) containing 0.76 μM (0.1 mCi/mL) of [^14C]-L-leucine and 0.025–1800 μM of the studied compound (or HBSS as blank). After incubation, the reaction was stopped with ice-cold HBSS, and the cells were washed two times with ice-cold HBSS. The cells were then lysed with 250 μL of 0.1 M sodium hydroxide, the lysate was mixed with 1.0 mL of Emulsifier safe cocktail (PerkinElmer, Waltham, MA, USA), and the radioactivity was measured with a liquid scintillation counter (MicroBeta^2 counter, PerkinElmer, Waltham, MA, USA). The inhibition of [^14C]-L-leucine in the presence of the studied compounds as compared to the control (HBSS) was calculated as percentages (%).
Using the stably hLAT1/4F2hc expressing cell line, the compounds’ inhibitory efficiencies and uptake kinetics were determined via the cis-inhibition assay and uptake studies, respectively. (Table 1) Cis-inhibition is based on the competition between the ligand and LAT1 substrate [^14C]-L-leucine that results in inhibition of substrate uptake. The competitive uptake with L-leucine is reported as the IC50 value of L-leucine uptake and extent as inhibition percentage (%) at a given concentration.

HEK-MOCK cells [3] = assay: cis-inhibition of [14C]-L-leucine uptake in HEK-MOCK cells; assay type: cell-based, human; settings: for inhibition at 50 µM / IC50: Homo sapiens; for inhibition at 50 µM: read-out: [14C]-L-Leucine uptake inhibition % (50μM); for IC50: read-out: IC50 of [14C]-L-leucine uptake
Method: as §5
Using the stably hLAT1/4F2hc expressing cell line, the compounds’ inhibitory efficiencies and uptake kinetics were determined via the cis-inhibition assay and uptake studies, respectively. (Table 1) Cis-inhibition is based on the competition between the ligand and LAT1 substrate [^14C]-L-leucine that results in inhibition of substrate uptake. The competitive uptake with L-leucine is reported as the IC50 value of L-leucine uptake and extent as inhibition percentage (%) at a given concentration. Overall, the inhibition trends of the tested compounds were similar between HEK-hLAT1 and MCF-7 cells. In the next step, more straightforward results were obtained by undertaking direct cellular uptake studies with both HEK-hLAT1 and HEK-MOCK cells. This experiment enabled us to determine not only the uptake kinetics (Vmax and Km) of the ligands but also their preference for LAT1-expressing cells over the comparator HEK-MOCK cells.

hLAT1/4F2hc [4] = target: T1, hLAT1/4F2hc; assay: Concentration-dependent cellular uptake into HEK-hLAT1 cells (LC-MS/MS, Michaelis-Menten); assay type: cell-based; settings: for Vmax / Km: HEK-hLAT1 cells; for Vmax: 2-400 μM, 10 min
Method: as §1, §2, §3, §4

[5] = target: T2, LAT1 in MCF-7 human breast cancer cells (Homo sapiens, UniProt Q01650); assay: cis-inhibition of [14C]-L-leucine uptake in MCF-7 cells; assay type: cell-based; settings: for inhibition at 50 µM: MCF7, MCF-7 cells, 50 μM compound; for IC50: MCF-7 cells
T2 construct: wild-type MCF-7 human breast cancer cell line; endogenous in cells; host or cells: MCF-7 human breast cancer cells (wild type)
T2 sequence (Q01650 whole entry): as the sequence (Q01650 whole entry) above
T2 sequence (P08195 102-630 partner): as the sequence (P08195 102-630 partner) above
Method: Cells were cultured in DMEM (Gibco, ThermoFisher Scientific, Waltham, MA, USA) supplemented with L-glutamine (2 mM; ThermoFisher Scientific, Waltham, MA, USA), heat-inactivated fetal bovine serum (10%; Gibco, ThermoFisher Scientific, Waltham, MA, USA), penicillin (50 U/mL)-streptomycin (50 μg/mL) solution (ThermoFisher Scientific, Waltham, MA, USA), and hygromycin B solution (100 μg/mL) for transfected cells. HEK-hLAT1 and HEK-MOCK cells (passages 7–20) were seeded at a density of 5 × 10^5 cells/wells onto 24-well plates. The cells were used in the characterization, competition, and uptake studies 2 days after seeding. MCF-7 cells were seeded at a density of 1 × 10^5 and were used in the competition studies 1 day after seeding. The culture medium was removed, and the cells were washed with prewarmed Hanks’ balanced salt solution (HBSS; 125 mM NaCl, 4.8 mM KCl, 1.2 mM MgSO4, 1.2 mM KH2PO4, 1.3 mM CaCl2, 5.6 mM D-glucose, and 25 mM HEPES, pH 7.4). The cells were then incubated with HBSS at 37 °C for 10 min before the experiments.
as §5

hLAT1/4F2hc [6] = target: T1, hLAT1/4F2hc; assay: Concentration-dependent cellular uptake into HEK-hLAT1 cells (LC-MS/MS, Michaelis-Menten); assay type: cell-based; settings: difference in uptake HEK-hLAT1 vs HEK-MOCK, with docking poses; 2-100 μM curves
[7] = known LAT1 substrates, 2-400 μM, n = 3
[8] = HEK-hLAT1 cells, known substrates, read-out: IC50 of [14C]-L-leucine uptake
[9] = HEK-hLAT1 cells, 50 μM compound, compounds 1-12
[10] = HEK-hLAT1 cells, compounds 1-12, read-out: IC50 of [14C]-L-leucine uptake

SMILES	Vmax (HEK-MOCK cells [1]; [7])	Km (HEK-MOCK cells [1]; known LAT1 substrates, n = 3)	inhibition at 50 µM [5]	IC50 [5]	inhibition at 50 µM (hLAT1/4F2hc [2]; [9])	IC50 (hLAT1/4F2hc [2]; [10])	interaction class with LAT1 (interaction and transportability) (hLAT1/4F2hc [6])	Km (HEK-MOCK cells [1]; compounds 1-12)	Vmax (HEK-MOCK cells [1]; compounds 1-12, 2-400 μM)	further results
NC1(C(=O)O)CC2CCC1C2 (stereo not drawn) [BCH, reference compound]	2.6±0.6 nmol/min/mg of protein	155 ± 50 µM	–	–	–	–	–	–	–	inhibition at 50 µM (hLAT1/4F2hc [2]; HEK-hLAT1 cells, 50 μM compound, 0.76 μM [14C]-L-leucine, 10 min, known substrates): 51.8 ± 2.1%; IC50 (hLAT1/4F2hc [2]; [8]): 28 µM; inhibition at 50 µM (HEK-MOCK cells [3]; 10 min, HEK-MOCK cells, 50 μM compound, 0.76 μM [14C]-L-leucine, 10 min, known substrates): 5.8 ± 1%; IC50 (HEK-MOCK cells [3]; HEK-MOCK cells, known substrates): 203 µM
N[C@@H](Cc1c[nH]c2ccccc12)C(=O)O [Tryptophan, L-tryptophan, reference compound]	0.3±0.2 nmol/min/mg of protein	482 ± 496 µM	–	–	–	–	–	–	–	Vmax (hLAT1/4F2hc [4]; known LAT1 substrates, n = 3): 12±19 nmol/min/mg of protein; IC50 (hLAT1/4F2hc [2]; [8]): 24 µM; inhibition at 50 µM (hLAT1/4F2hc [2]): 50.2 ± 1.7%; inhibition at 50 µM (HEK-MOCK cells [3]; 10 min): 19.6 ± 6.2%; IC50 (HEK-MOCK cells [3]): 163 µM
COc1ccc2cc(C(C)C(=O)Nc3cccc(C[C@H](N)C(=O)O)c3)ccc2c1 (stereo partly drawn) [Compound 12]	–	–	83 ± 1.7%	5.6 ± 1.3 µM	28 ± 2.6%	> 100 µM	not interacting with LAT1	–	–	–
N[C@@H](Cc1ccc(N(CCCl)CCCl)cc1)C(=O)O [Melphalan, reference compound]	0.07±0.09 nmol/min/mg of protein	91 ± 21 µM	–	–	–	–	–	–	–	Vmax (hLAT1/4F2hc [4]; known LAT1 substrates, n = 3): 0.08±0.01 nmol/min/mg of protein; Km (hLAT1/4F2hc [4]; known LAT1 substrates, n = 3): 35 ± 7 µM; IC50 (hLAT1/4F2hc [2]): 6.6 µM; inhibition at 50 µM (hLAT1/4F2hc [2]): 38.2 ± 2.4%; [14C]-L-Leucine uptake inhibition % (50μM) (HEK-MOCK cells [3]; HEK-MOCK cells, 50 μM compound, 0.76 μM [14C]-L-leucine, 10 min, known substrates): no inhibition
CNC(=O)COc1ccc(-c2c(C#N)c(NC(=O)c3cccc(C[C@H](N)C(=O)O)c3)n3c(nc4ccccc43)c2C#N)cc1 [Compound 6]	–	–	48 ± 12%	–	29 ± 2.8%	> 100 µM	medium interactions	201 ± 344 µM	74±92 pmol/min/mg of protein	–
CCCC(CCC)C(=O)Nc1cccc(C[C@H](N)C(=O)O)c1 [Compound 4]	–	–	–	81 ± 1.4 µM	–	> 100 µM	highest interactions	277 µM	292 pmol/min/mg of protein and 292±710 pmol/min/mg of protein	Vmax (hLAT1/4F2hc [4]; compounds 1-12): 1027 pmol/min/mg of protein and 1027±170 pmol/min/mg of protein; Km (hLAT1/4F2hc [4]; compounds 1-12, read-out: Km): 111 ± 30 µM; potency for hLAT1 relative to HEK-MOCK (Km ratio) (hLAT1/4F2hc [4]; Km 111 μM HEK-hLAT1 vs 277 μM HEK-MOCK): more than two-fold; Vmax (uptake rate) in HEK-hLAT1 cells relative to HEK-MOCK cells (hLAT1/4F2hc [4]; ratio of Vmax values): around three; [14C]-L-Leucine uptake inhibition % (50μM) (hLAT1/4F2hc [2]; [9]): no inhibition
N[C@@H](Cc1cccc(NC(=O)c2ccccc2O)c1)C(=O)O [Compound 1]	–	–	66 ± 3.9%	3.3 ± 1.3 µM	8.1 ± 6.9%	> 100 µM	highest interactions	10 ± 2.7 µM	94±5.4 pmol/min/mg of protein	Vmax (hLAT1/4F2hc [4]; compounds 1-12): 3714±371 pmol/min/mg of protein; Km (hLAT1/4F2hc [4]; compounds 1-12, read-out: Km): 105 ± 17 µM
CC(C(=O)Nc1cccc(C[C@H](N)C(=O)O)c1)c1ccc(-c2ccccc2)c(F)c1 (stereo partly drawn) [Compound 11]	–	–	84 ± 3.1%	2.2 ± 1.3 µM	26.4 ± 3.1%	> 100 µM	not interacting with LAT1	–	–	–
CC(C)Cc1ccc(C(C)C(=O)Nc2cccc(C[C@H](N)C(=O)O)c2)cc1 (stereo partly drawn) [Compound 7]	–	–	69 ± 4.3%	20 ± 1.3 µM	20 ± 2.5%	57 µM	medium interactions	–	–	–
